Measurements from US20230119539A1, “TRACELESS LINKERS AND PROTEIN-CONJUGATES THEREOF” (Regeneron Pharmaceuticals, Inc., priority 2019, published 2023).

Assay: pH stability of quenched linker-payloads in buffers (LCMS)
Assay type: physicochemical
Method: To a solution of compound (payloads or quenched-linker-payloads) in DMSO (0.2-1.0 mg/mL) was added corresponding PBS buffer (V(buffer)/V(DMSO)=5) to give test samples (pH 3, 4, 5, 6, 7.4, and 8.5, or other special pH). The test samples were incubated at RT for at least 3 days and monitored by LCMS (i.e., at 1 hr, 2 hr, 4 hr, 8 hr, and 1 day, 2 day, 3 day, 4 day, 5 day, 6 day, 7 day, 8 day, 9 day, and 21 day time points). Initial concentrations of the samples were 0.2 mg/mL (DMSO/buffer, v/v=1/5). […] The payloads and quenched linker-payloads were mostly stable at pH >5.0, 6.0, 7.4 and 8.5 after 3 days. In more acidic conditions, such as pH 1.0, the payloads or linker-payloads were easily cleaved to release D*-OH.

SMILES	LP: percentage of linker-payloads remaining (pH 4.0, day 1) [%]	P: percentage of budesonide released from the linker-payloads (pH 4.0, day 1) [%]	LP: percentage of linker-payloads remaining (pH 4.0, day 2) [%]	P: percentage of budesonide released from the linker-payloads (pH 4.0, day 2) [%]	LP: percentage of linker-payloads remaining (pH 4.0, day 7) [%]	P: percentage of budesonide released from the linker-payloads (pH 4.0, day 7) [%]	LP: percentage of linker-payloads remaining (pH 5.0, day 1) [%]	P: percentage of budesonide released from the linker-payloads (pH 5.0, day 1) [%]	LP: percentage of linker-payloads remaining (pH 5.0, day 2) [%]	P: percentage of budesonide released from the linker-payloads (pH 5.0, day 2) [%]	LP: percentage of linker-payloads remaining (pH 5.0, day 7) [%]	P: percentage of budesonide released from the linker-payloads (pH 5.0, day 7) [%]	LP: percentage of linker-payloads remaining (pH 7.4, day 1) [%]	P: percentage of budesonide released from the linker-payloads (pH 7.4, day 1) [%]	LP: percentage of linker-payloads remaining (pH 7.4, day 2) [%]	P: percentage of budesonide released from the linker-payloads (pH 7.4, day 2) [%]	LP: percentage of linker-payloads remaining (pH 7.4, day 7) [%]	P: percentage of budesonide released from the linker-payloads (pH 7.4, day 7) [%]	also measured
CCCC1OC2CC3C4CCC5=CC(=O)C=CC5(C)C4C(O)CC3(C)C2(C(=O)COCN2CCCC(NC(=O)OCc3ccc(NC(=O)C(CCCNC(N)=O)NC(=O)C(NC(=O)CCOCCOCCOCCOCCNC(=O)CCC(=O)N4Cc5ccccc5-c5c(nnn5CCOCCOCCOCCOCCC(=O)NCCS(=O)(=O)O)-c5ccccc54)C(C)C)cc3)C2=O)O1 (mixture of isomers) [Q1L1-PII-12]	100	0	100	0	100	0	100	0	100	0	100	0	100	0	100	0	100	0	
CCCC1OC2CC3C4CCC5=CC(=O)C=CC5(C)C4C(O)CC3(C)C2(C(=O)COC2CCN2C(=O)CNC(=O)CCOCCOCCOCCOCCNC(=O)CCC(=O)N2Cc3ccccc3-c3c(nnn3CCOCCOCCOCCOCCC(=O)NCCS(=O)(=O)O)-c3ccccc32)O1 (mixture of isomers) [Q1L6-PII-13]	100	0	100	0	100	0	100	0	100	0	100	0	100	0	100	0	100	0	LP: percentage of linker-payloads remaining (pH 6.0, day 1): 100%; P: percentage of budesonide released from the linker-payloads (pH 6.0, day 1): 0%; LP: percentage of linker-payloads remaining (pH 6.0, day 2): 100%; P: percentage of budesonide released from the linker-payloads (pH 6.0, day 2): 0%; LP: percentage of linker-payloads remaining (pH 6.0, day 7): 100%; P: percentage of budesonide released from the linker-payloads (pH 6.0, day 7): 0%
